Measured values taken from PMC9229894, “In Silico, In Vitro, and Pharmacokinetic Studies of UBMC-4, a Potential Novel Compound for Treating against Trypanosoma cruzi” (Pathogens, 2022).
Entries after “also recorded” stand apart in the source; their conditions may differ.

Columns and labels:
T. cruzi epimastigotes [1] = test: Scanning and transmission electron microscopy of epimastigotes under nutritional stress; assay type: cell-based, Trypanosoma cruzi; details: 10 µM, nutritional stress (PBS) 6 h
Procedure: Epimastigotes untreated and treated with 10 uM of UBMC-4 under nutritional stress conditions (culture medium substitution for PBS for 6 h) were fixed for 2 h using 2.5% glutaraldehyde in cacodylate buffer 0.1 M. Parasites adhered for 10 min onto coverslips previously coated with 0.1% poly-L-lysin and subsequently washed with cacodylate buffer and dehydrated using 30%, 50%, 70%, and 90% (v/v) acetone for 5 min on each incubation. Subsequently, the cells were critically dried under CO2 and attached to the heel of the SEM instrument. Finally, samples were coated with a 20 nm-thick gold layer and analyzed in a Jeol JSM6010Plus-LA scanning electron microscope at 20 kV. For TEM, parasites were fixed for 2 h with glutaraldehyde and cacodylate buffer and then treated for 1 h with 1% OsO4 diluted in the same buffer. Parasites were dehydrated as above and then embedded in PolyBed-812 resin. Ultrathin sections were collected in copper grids and stained with 5% aqueous uranyl acetate and lead citrate. Samples were examined in a Jeol JEM-1400plus transmission electron microscope at 80 kV.

T. cruzi epimastigotes [2] = test: Intracellular ROS production in epimastigotes (H2DCFDA); assay type: cell-based, Trypanosoma cruzi; details: 10 µM, 24 h
Procedure: A total of 1.4 × 10^6 epimastigotes grown under normal and stress nutritional conditions were treated with 10 µM UBMC-4 for 24 h and the intracellular ROS concentration was determined by fluorometric testing with the diacetate 2′,7′-dichlorodihydrofluorescein (H2DCFDA) probe at 0.2 µg/mL. As controls, cell cultures both treated with no probe as well as only labeled with H2DCFDA were performed to determine baseline fluorescence. A ROS-production positive control was set up by challenging parasites with […] rotenone (a ROS inducer) for 1 h prior to labeling and reading. After the treatment, parasites were washed and resuspended in 100 µL of the H2DCFDA-containing solution, transferred to 96-well plates protected from the light, and then incubated for 1 h at 37 °C. The test readout was collected using an ELISA plate reader at an excitation wavelength of 495 nm and emission wavelength of 527 nm, respectively. Each treatment was performed in triplicate, and data were reported in arbitrary units of fluorescence.

Solubility remark = assay type: physicochemical

## Oc1ccc(-c2nc(-c3ccc4sc5ccccc5c4c3)c(-c3ccccc3)[nH]2)cc1 [UBMC-4, 4-(4-dibenzo-[b,d]-thien-2-yl-5-phenyl-1H-imidazol-2-yl)phenol]
T. cruzi epimastigotes [1]
  morphology and ultra-structure changes (SEM, TEM): progressive alterations such as flagellum inactivation, cell size reduction, nuclear structure alteration, condensation of chromatin towards the nuclear periphery, vacuole formation, mitochondrial swelling with kinetoplast integrity loss; also recorded: non-reversible morphological damage
T. cruzi epimastigotes [2]; normal nutritional conditions
  intracellular ROS concentration, treated vs untreated: No significant differences
T. cruzi epimastigotes [2]; nutritional stress
  intracellular ROS concentration compared to untreated parasites: twofold ROS concentration
Solubility remark
  solubility: slight solubility problems
